# Experimental data as given in US10294202B2, “Pyrrolidinones as herbicides” (FMC Corporation, priority 2013, dated 2019).
# What was measured:
# foxtail, green = assay: Test C pre-/postemergence herbicide test; type: in vivo, Setaria viridis
# In short: (§1)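 Greenhouse pots; formulation = non-phytotoxic solvent mix + surfactant. PRE onto seeds in loam:sand; POST at 1–4 leaves (2–18 cm) in peat moss/vermiculite medium. Read-out: visual % control vs untreated, day 13–15.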
# bermudagrass = assay: Test C pre-/postemergence herbicide test; type: in vivo, Cynodon dactylon
# In short: as §1
# windgrass = assay: Test D pre-/postemergence herbicide test; type: in vivo, Apera spica-venti; conditions: Postemergence, Windgrass, scale 0 to 100
# In short: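 Seeds sown in silt loam were sprayed preemergence with test chemicals in a non-phytotoxic solvent mixture with surfactant. Postemergence plants grown in peat/vermiculite medium were treated at 2–18 cm (1- to 4-leaf stage). After 7 to 21 days in a controlled environment, injury was rated visually versus controls, 0 (no effect) to 100 (complete control).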
# wild poinsettia = assay: Test E preemergence herbicide test; type: in vivo, Euphorbia heterophylla; parameters: key: 0 = no effect, 100 = complete control
# In short: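 Visual injury rating, 0 (no effect) to 100 (complete control), versus controls at 21 days in greenhouse. Preemergence application to seeds planted in silt loam; compound formulated in non-phytotoxic solvent mix plus surfactant.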
# foxtail, giant = assay: Test E preemergence herbicide test; type: in vivo, Setaria faberii; parameters: key: 0 = no effect, 100 = complete control
# From the text: (§2) Seeds of plant species selected from corn (Zea mays), soybean (Glycine max), velvetleaf (Abutilon theophrasti), lambsquarters (Chenopodium album), wild poinsettia (Euphorbia heterophylla), pigweed, palmer (palmer pigweed, Amaranthus palmeri), waterhemp (common waterhemp, Amaranthus rudis), surinam grass (Brachiaria decumbens), crabgrass, large (large crabgrass, Digitaria sanguinalis), crabgrass, Brazil (Brazilian crabgrass, Digitaria horizontalis), panicum, fall (fall panicum, Panicum dichotomiflorum), foxtail, giant (giant foxtail, Setaria faberii), foxtail, green (green foxtail, Setaria viridis), goosegrass (Eleusine indica), johnsongrass (Sorghum halepense), ragweed (common ragweed, Ambrosia elatior), barnyardgrass (Echinochloa crus-galli), sandbur (southern sandbur, Cenchrus echinatus), arrowleaf […] rhombifolia), ryegrass, Italian (Italian ryegrass, Lolium multiflorum), dayflower, VA (Virginia dayflower, Commelina virginica), field bindweed (Convolvulus arvensis), morningglory (Ipomoea coccinea), nightshade (eastern black nightshade, Solanum ptycanthum), kochia (Kochia scoparia), nutsedge, yellow (yellow nutsedge, Cyperus esculentus), cocklebur (common cocklebur, Xanthium strumarium), smartweed (ladysthumb smartweed, Polygonum Persicaria) and beggarticks (hairy beggarticks, Bidens pilosa), were planted into a silt loam soil and treated preemergence with test chemicals formulated in a non-phytotoxic solvent mixture which included a surfactant. Treated plants and controls were maintained in a greenhouse for 21 days, after which time all species were compared to controls and visually evaluated. Plant response ratings, summarized in Table E, are based on a scale of 0 to 100 where 0 is no effect and 100 is complete control. A dash (-) response means no test result.
# ryegrass, Italian = assay: Test E preemergence herbicide test; type: in vivo, Lolium multiflorum; parameters: key: 0 = no effect, 100 = complete control
# From the text: as §2
# [1] = Postemergence, 31 g ai/ha, scale 0 (no effect) to 100 (complete control)
# [2] = Postemergence, 62 g ai/ha, scale 0 to 100 (0 no effect, 100 complete control)
# [3] = Postemergence, 125 g ai/ha, scale 0 to 100 (0 no effect, 100 complete control)
# [4] = Postemergence, 250 g ai/ha, scale 0 to 100 (0 no effect, 100 complete control)
# [5] = Preemergence, 62 g ai/ha, scale 0 to 100
# [6] = Preemergence, 125 g ai/ha, scale 0 to 100 (0 no effect, 100 complete control)
# [7] = Preemergence, 31 g ai/ha, scale 0 to 100 (0 no effect, 100 complete control)
# [8] = Preemergence, 250 g ai/ha, scale 0 to 100 (0 no effect, 100 complete control)
compound,measurement,setting,value
"O=C1NCC(c2ccc(F)c(F)c2)C1C(=O)Nc1cccc(F)c1F (stereo not drawn) [Compound 17, N-(2,3-difluorophenyl)-4-(3,4-difluorophenyl)-2-oxo-3-pyrrolidinecarboxamide]","Plant response rating, Foxtail, Green","foxtail, green; [1]",0
same,"Plant response rating, Foxtail, Green","foxtail, green; [2]",0
same,"Plant response rating, Foxtail, Green","foxtail, green; [3]",0
same,"Plant response rating, Foxtail, Green","foxtail, green; [4]",0
same,"Plant response rating, Foxtail, Green","foxtail, green; [5]",95
same,"Plant response rating, Foxtail, Green","foxtail, green; [6]",98
same,"Foxtail, Green plant response rating","foxtail, green; [7]",95
same,"Plant response rating, Foxtail, Green","foxtail, green; [8]",98
same,"Plant response rating, Bermudagrass",bermudagrass; [1],0
same,"Plant response rating, Bermudagrass",bermudagrass; [2],0
same,"Plant response rating, Bermudagrass",bermudagrass; [3],0
same,"Plant response rating, Bermudagrass",bermudagrass; [4],0
same,"Plant response rating, Bermudagrass",bermudagrass; [5],45
same,"Plant response rating, Bermudagrass",bermudagrass; [6],85
same,Bermudagrass plant response rating,bermudagrass; [7],0
same,"Plant response rating, Bermudagrass",bermudagrass; [8],90
same,Plant response rating,windgrass; 16 g ai/ha,0
same,Plant response rating,windgrass; 31 g ai/ha,0
same,Plant response rating,windgrass; 62 g ai/ha,0
same,Plant response rating,windgrass; 125 g ai/ha,0
same,Plant response rating,windgrass; 250 g ai/ha,0
same,"Plant response rating, Poinsettia, Wild",wild poinsettia; 16 g ai/ha,0
same,"Plant response rating, Poinsettia, Wild",wild poinsettia; 31 g ai/ha,0
same,"Plant response rating, Poinsettia, Wild",wild poinsettia; 62 g ai/ha,0
same,"Plant response rating, Poinsettia, Wild",wild poinsettia; 125 g ai/ha,0
same,"Plant response rating, Poinsettia, Wild",wild poinsettia; 250 g ai/ha,20
same,"Plant response rating, Foxtail, Giant","foxtail, giant; 16 g ai/ha",0
same,"Plant response rating, Foxtail, Giant","foxtail, giant; 31 g ai/ha",35
same,"Plant response rating, Foxtail, Giant","foxtail, giant; 62 g ai/ha",35
same,"Plant response rating, Foxtail, Giant","foxtail, giant; 125 g ai/ha",95
same,"Plant response rating, Foxtail, Giant","foxtail, giant; 250 g ai/ha",98
same,"Plant response rating, Ryegrass, Italian","ryegrass, Italian; 16 g ai/ha",0
same,"Plant response rating, Ryegrass, Italian","ryegrass, Italian; 31 g ai/ha",0
same,"Plant response rating, Ryegrass, Italian","ryegrass, Italian; 62 g ai/ha",0
same,"Plant response rating, Ryegrass, Italian","ryegrass, Italian; 125 g ai/ha",0
same,"Plant response rating, Ryegrass, Italian","ryegrass, Italian; 250 g ai/ha",0
